Measured values from patent publication US20260284082A1, “TARGETING THE PANX1-P2Y2R-TRPV4 PATHWAY TO TREAT LUNG ISCHEMIA-REPERFUSION INJURY” (UNIVERSITY OF VIRGINIA PATENT FOUNDATION, priority 2023, published 2026).

Columns and labels:
[1] = tested on: endothelium of human small PAs; assay: Baseline endothelial Ca2+ signaling in freshly isolated small PAs from human lungs exposed to HR; format: cell-based; conditions: ARC; human small PAs (~50 μm)
Protocol: Ca^2+ imaging in Pas: Ca^2+ imaging in small Pas was performed as previously described.8 Fourth-order, small (~50 μm diameter) Pas (see FIG. 1B) were dissected from left lungs in cold HEPES-buffered physiological salt solution (HEPES-PSS; 10 mM HEPES, 134 mM NaCl, 6 mM KCl, 1 mM MgCl2 hexahydrate, 2 mM CaCl2) dihydrate, and 7 mM dextrose; pH adjusted to 7.4 using 1 M NaOH). Ca^2+ imaging studies were performed in en face preparations of small Pas incubated with Fluo-4 AM (10 μM) and pluronic acid (0.04%) at 37° C. for 10 minutes. For studies after sham or lung IR surgery, small Pas were immediately dissected out after the indicated reperfusion time and incubated en face with Fluo-4 AM. For acute hypoxia-reoxygenation (HR) exposure, small Pas were washed with PBS, after which serum free/glucose-free endothelial cell medium was added. Small Pas were placed in a humidified, sealed hypoxia chamber (Billups-Rothenberg, San Diego, CA), which was subsequently flushed with 95% nitrogen/5% CO2 for 20 minutes and placed in a 37° C. incubator to initiate hypoxia. After 1 hour of hypoxia, the chamber was opened to terminate hypoxia. […] Fluo-4 was excited using a 488-nm solid-state laser, and emitted fluorescence was captured using a 525/36-nm band-pass filter. […] Baseline Ca^2+ signaling activity was recorded in the absence of CPA. […]

[2] = tested on: pulmonary endothelium of small PAs; assay: Endothelial Ca2+ signals in small PAs exposed ex vivo to acute hypoxia-reoxygenation (HR); format: cell-based; conditions: GSK219 100 nM; small PAs from TRPV4fl/fl mice, 1 h hypoxia + 10 min reoxygenation
Protocol: Ca^2+ imaging in Pas: Ca^2+ imaging in small Pas was performed as previously described.8 Fourth-order, small (~50 μm diameter) Pas (see FIG. 1B) were dissected from left lungs in cold HEPES-buffered physiological salt solution (HEPES-PSS; 10 mM HEPES, 134 mM NaCl, 6 mM KCl, 1 mM MgCl2 hexahydrate, 2 mM CaCl2) dihydrate, and 7 mM dextrose; pH adjusted to 7.4 using 1 M NaOH). Ca^2+ imaging studies were performed in en face preparations of small Pas incubated with Fluo-4 AM (10 μM) and pluronic acid (0.04%) at 37° C. for 10 minutes. For studies after sham or lung IR surgery, small Pas were immediately dissected out after the indicated reperfusion time and incubated en face with Fluo-4 AM. […] Fluo-4 was excited using a 488-nm solid-state laser, and emitted fluorescence was captured using a 525/36-nm band-pass filter. […] Baseline Ca^2+ signaling activity was recorded in the absence of CPA.
Analysis of baseline Ca^2+ signaling activity and TRPV4 sparklet activity in the pulmonary endothelium: Ca^2+ images acquired using the procedure described above were analyzed with custom-designed SparkAn software (source code available at https://github.com/vesselman/SparkAn).^10 Fractional fluorescence (F/F0) traces were obtained by placing a 1.7 μm2 (5×5 pixels) region of interest (ROI) at the peak event amplitude. […] Overall baseline Ca^2+ signals were automatically detected using a threshold of 1.25 F/F0. […]

[3] = dog, in vivo; cited from earlier work

Row | SMILES | HR-induced increase in endothelial Ca2+ signaling [1] | HR-induced increase in endothelial Ca2+ signals [2] | plasma half-life (t1/2) [3] [h]
1 | Cc1ccc2c(c1)C=Cc1cc(C)ccc1C2c1cn(Cc2ccc(C(=O)Nc3nn[nH]n3)o2)c(=O)[nH]c1=S [ARC, AR-C 118925XX] | inhibited | – | –
2 | O=C(NC1(c2ccccc2)CC1)c1c(CN2CCC(N3CCCCC3)CC2)c(-c2cccc(C(F)(F)F)c2)nc2cc(Br)ccc12 [GSK219, GSK2193874] | – | completely abolished | 31
